Results reported in PubChem BioAssay AID2305 (GlaxoSmithKline (GSK), 2010).

Tested on: P. falciparum 3D7 growth, pLDH absorbance
Assay: blood-stage malaria parasite growth potency – strain 3D7, dose response (AID 2305)

Compared with `COc1cc2nc(N(C)C)nc(Nc3ccc4c(cnn4Cc4ccccc4)c3)c2cc1OC`, `COc1ccc(NC(=O)Nc2cc(C)nc3ccccc23)cc1Cl` is 17-fold higher in IC50: 0.04 µM for the first, 0.69 µM for the second. The first is the more potent here.

Going from `COc1ccccc1CNC(=O)C(=O)Nc1c(-c2ccccc2)[nH]c2ccccc12` to `Nc1cc(-c2cc3c(OCc4ccccc4)cccc3[nH]2)ccn1`, the IC50 rises from 0.74 µM to 1.19 µM (1.6-fold).

Going from `COc1ccc(OC)c(Cc2cnc3nc(N)nc(N)c3c2C)c1` to `CCc1ccc(Cc2cnc3nc(N)nc(N)c3c2C)cc1CC`, the IC50 rises from 0.01 µM to 0.29 µM (29-fold). The first is the more potent here.

`CC(C)CNC(=O)c1ccnc(-c2ccc(CNCCCc3ccccc3)cc2)c1` and `CCCNCc1ccc(-c2ccc(CN(CCOC)C(=O)c3ccco3)cc2)nc1` are within 1.5-fold of each other in IC50: 0.73 µM for the first, 1 µM for the second.

`COc1nc(-n2ccc(=N)cc2)nc2ccccc12` and `COCCn1c(C)nc2ccccc2c1=O` are within 1.5-fold of each other in IC50: 1.06 µM for the first, 1.46 µM for the second.

Compared with `CC(C)NCc1ccc(-c2cccc(NC(=O)c3cccc(C#N)c3)c2)cc1`, `CN1CCCN(Cc2cccc(-c3ccc(NC(=O)c4cccc(Cl)c4)cc3)c2)CC1` is 2.3-fold higher in IC50: 0.41 µM for the first, 0.93 µM for the second. The first is the more potent here.

`CCCNC(=O)Nc1ccc(N(C)c2ccnc(NC3CC3)n2)cc1` and `CC(=O)c1cccc(NC(=O)NC2CCN(c3ccnc(Nc4ccc(F)cc4)n3)C2)c1` (stereo not given) are within 1.5-fold of each other in IC50: 0.62 µM for the first, 0.65 µM for the second.

Going from `O=[N+]([O-])c1cccc(-n2nc(NCc3ccc(Cl)cc3)nc2-c2ccc(F)c(C(F)(F)F)c2)c1` to `Cn1cncc1C(=O)Nc1ccc(-c2cccc(-c3nc4ccc(C(F)(F)F)cc4[nH]3)c2)cc1`, the IC50 rises from 0.24 µM to 0.86 µM (3.6-fold).

`CCC(=O)N[C@@H]1CN[C@@H](C#Cc2cc3c(Nc4ccc(OCc5cccc(F)c5)c(Cl)c4)ncnc3s2)C1` and `CN1CCN(CC(=O)Nc2ccc(-c3cccc(-c4nc5ccc(F)cc5[nH]4)c3)cc2)CC1` are within 1.5-fold of each other in IC50: 1.12 µM for the first, 0.83 µM for the second.

`CCCC(C)NC(=O)[C@H](CC1CCCCC1)NC(=O)c1ccc(O)c(-c2cccc(C(F)(F)F)c2)c1` (stereo not given in full) and `CC(C)Nc1cc(C(=O)N[C@@H](Cc2ccccc2)[C@H](O)CNCc2cccc(C(F)(F)F)c2)c(F)c(N2CCCCS2(=O)=O)c1` are within 1.5-fold of each other in IC50: 0.53 µM for the first, 0.79 µM for the second.

`COc1ccc2nccc(NCC3(O)CCC(NCc4ccc5c(n4)NC(=O)CS5)CC3)c2n1` (stereo not given) and `COc1ccc2nc(N3CCN(C(=O)OC(C)(C)C)CC3)nc(NCCCc3ccccc3)c2c1` are the same in IC50: 0.69 µM for the first, 0.69 µM for the second.

First: Cc1cccc2[nH]c(-c3ccc(-c4cccc(CN5CCCC5CN)c4)s3)nc12 (stereo not given)
Second: Cc1cccc2[nH]c(-c3ccc(-c4cccc(NC(=O)Nc5ccsc5)c4)s3)nc12
The IC50 of the first is 1.6-fold higher: 0.87 µM for the first, 0.54 µM for the second. The second is the more potent here.

Compared with `CCn1c(-c2cc(C)on2)nc2cnc(Oc3ccc(C(=O)N4CC(=O)N(C)C4C(C)(C)C)cc3)cc21` (stereo not given), `O=C(CSc1nc2ccccc2c(=O)n1CC1CCCO1)Nc1cc(C(F)(F)F)ccc1Cl` (stereo not given) is 7.9-fold lower in IC50: 1.82 µM for the first, 0.23 µM for the second.

`CCCC(C)NC(=O)C(N)Cc1cccc(I)c1` (stereo not given) and `Cc1ccc(CC(C)NCC(O)c2cccc(C#N)c2)cc1` (stereo not given) are within 1.5-fold of each other in IC50: 0.98 µM for the first, 0.94 µM for the second.

Going from `CCCC1N=C(N)N=C(N)N1c1cccc(C(F)(F)F)c1` (stereo not given) to `CCn1c(C(C)C)cc2c3c(N)nc(N)nc3ccc21`, the IC50 falls from 0.59 µM to 0.01 µM (59-fold).

`COc1ccc(CCN2CCC(Nc3nc4ccccc4n3CCc3ccc(OC)cc3)CC2)cc1` and `Cc1[nH]c2ccccc2c1C1CCN(CCCCNC(=O)c2ccc(-c3ccc(C#N)cc3)cc2)CC1` are within 1.5-fold of each other in IC50: 0.66 µM for the first, 0.7 µM for the second.

Compared with `Cc1ccc(C2=NNC3(S2)C(=O)Nc2ccc(C)cc23)cc1` (stereo not given), `Cc1nnsc1C(=O)Nc1ccc(-c2ccc(-c3nc4c(C)cccc4[nH]3)s2)cc1` is 1.7-fold lower in IC50: 1.02 µM for the first, 0.59 µM for the second. The second is the more potent here.

`O=C(NC(Nc1ccc([N+](=O)[O-])cc1)C(Cl)(Cl)Cl)c1cccc(Cl)c1` (stereo not given) and `Cc1cccc2[nH]c(-c3cccc(-c4ccc(NC(=O)CS(C)(=O)=O)cc4)c3)nc12` are within 1.5-fold of each other in IC50: 0.86 µM for the first, 1 µM for the second.

`N#CCOc1c(C2CCN(CCCCNC(=O)c3ccc(-c4ccc(C(F)(F)F)cc4)cc3)CC2)ccc2c1CCCC2` and `NCCCNc1ccc(-c2ccc(NC(=O)Nc3cc(C(F)(F)F)ccc3F)cc2)cn1` are within 1.5-fold of each other in IC50: 0.76 µM for the first, 0.84 µM for the second.

Compared with `O=C([C@@H]1CCCCN1c1ccc([N+](=O)[O-])c2ccccc12)N1CCN(c2ncccn2)CC1`, `O=S(=O)(c1cccc2cccnc12)N1CCN(C2CCCCC2)CC1` is 3.8-fold higher in IC50: 0.2 µM for the first, 0.76 µM for the second.

First: OCCN1CCN(Cc2cccc(-c3cccc(-c4nc5ccc(F)cc5[nH]4)c3)c2)CC1
Second: Cn1nccc1C(=O)NCCNCc1cccc(-c2ccc(-c3nc4ccccc4[nH]3)s2)c1
The IC50 of the first is 2.4-fold higher: 0.71 µM for the first, 0.3 µM for the second. The second is the more potent here.

Going from `N=C(N)c1ccc(Oc2ccc(C(=N)N)cc2)cc1` to `Cn1cc(CN2CCCC(COC(c3ccc(F)cc3)c3ccc(F)cc3)C2)cn1` (stereo not given), the IC50 rises from 0.32 µM to 0.57 µM (1.8-fold).

`CN(C)CCCNc1ncnc2c1[nH]c1ccc(F)cc12` and `O=c1cc(NCCCNCc2ccc3c(c2)OC(F)(F)O3)[nH]c2ccccc12` are within 1.5-fold of each other in IC50: 0.73 µM for the first, 0.77 µM for the second.

Going from `CCN1CCN(CCCNc2c3ccc(Cl)cc3nc3ccc(OC)cc23)CC1` to `O=C(/C=C/c1ccc(Cl)c(Cl)c1)NCCCCCCN1CCN(C(=O)Nc2ccc(Cl)c(C(F)(F)F)c2)CC1`, the IC50 rises from 0.15 µM to 0.53 µM (3.5-fold). The first is the more potent here.

Going from `CC1=C(C(=O)Nc2cc3cn[nH]c3cc2F)C(c2ccc(Cl)c(NS(C)(=O)=O)c2)CC(=O)N1` (stereo not given) to `CCCCN(CCCC)C(=NCCCCCCN=C(/N=C(/N)Nc1ccc(Cl)cc1)N(CCCC)CCCC)/N=C(/N)Nc1ccc(Cl)cc1`, the IC50 rises from 0.48 µM to 0.79 µM (1.6-fold). The first is the more potent here.
